Measurements from US20230348426A1, “OXOPYRROLIDINE FPR2 AGONISTS” (Bristol-Myers Squibb Company, priority 2020, published 2023).

Tests used:
[1] = molecular target: human FPR2 (Homo sapiens (Human), UniProt P25090); assay: FPR2 cyclic adenosine monophosphate (cAMP) assay; assay type: cell-based; conditions: CHO cells overexpressing human FPR2; forskolin 5 µM; inhibition of cAMP production; read-out: hFPR2 cAMP2 EC50
In short: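 CHO cells overexpressing human FPR2 (2,000/well) incubated 30 min at room temperature with compound (0.020 nM–100 µM, 1% DMSO), 5 µM forskolin and 200 µM IBMX.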

[2] = molecular target: human FPR1 (Homo sapiens (Human), UniProt P21462); assay: FPR1 cyclic adenosine monophosphate (cAMP) assay; assay type: cell-based; conditions: CHO cells overexpressing human FPR1; forskolin 10 µM; inhibition of cAMP production; read-out: hFPR1 cAMP EC50
In short: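 CHO cells overexpressing human FPR1 (4,000 cells/well) stimulated with 10 µM forskolin plus 200 µM IBMX in the presence of compound (0.020 nM–100 µM, 1% DMSO), 30 min at room temperature. Intracellular cAMP measured by HTRF. Inhibition of cAMP production fitted to a 4-parameter logistic equation.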

Chain of human FPR2 (P25090 whole entry): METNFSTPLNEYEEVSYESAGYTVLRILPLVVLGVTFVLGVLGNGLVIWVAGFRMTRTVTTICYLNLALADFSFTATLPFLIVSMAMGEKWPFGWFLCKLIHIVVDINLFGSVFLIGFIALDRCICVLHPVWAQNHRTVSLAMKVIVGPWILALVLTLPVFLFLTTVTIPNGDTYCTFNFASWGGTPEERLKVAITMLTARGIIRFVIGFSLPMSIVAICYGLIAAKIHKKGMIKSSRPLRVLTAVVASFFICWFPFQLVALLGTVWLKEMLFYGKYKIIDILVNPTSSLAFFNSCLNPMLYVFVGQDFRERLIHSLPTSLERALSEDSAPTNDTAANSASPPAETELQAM
Chain of human FPR1 (P21462 whole entry): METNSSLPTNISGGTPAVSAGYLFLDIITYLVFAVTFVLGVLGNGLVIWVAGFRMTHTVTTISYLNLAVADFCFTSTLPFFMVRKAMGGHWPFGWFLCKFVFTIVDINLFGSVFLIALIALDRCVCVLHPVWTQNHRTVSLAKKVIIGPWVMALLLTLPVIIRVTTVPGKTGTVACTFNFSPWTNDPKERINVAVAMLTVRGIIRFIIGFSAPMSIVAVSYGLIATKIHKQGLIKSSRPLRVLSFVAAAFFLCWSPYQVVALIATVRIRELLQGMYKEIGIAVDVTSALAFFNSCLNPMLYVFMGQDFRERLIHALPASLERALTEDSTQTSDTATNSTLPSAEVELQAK

| SMILES | EC50 [1] | EC50 [2] |
| --- | --- | --- |
| COc1cc(F)c([C@@H]2CN(c3c(C)ccn(C4CCNCC4)c3=O)C(=O)[C@H]2NC(=O)c2ccc(Cl)cc2)c(F)c1 [Example 506] | 0.8 nM | 68 nM |
| COc1cc(F)c([C@@H]2CN(c3nc(N4CC5(COC5)C4)ccc3F)C(=O)[C@H]2NC(=O)c2ccc(OC(F)F)cc2)c(F)c1 [Example 209] | 5.5 nM | 130 nM |
| COCCN1CCC(N2C[C@@H](c3c(F)cc(OC)cc3F)[C@H](NC(=O)c3ccc(OC(F)(F)F)cc3)C2=O)C1=O (stereo partly shown) [Example 353] | 4.2 nM | 17 nM |
| CCn1ccc(F)c(N2C[C@@H](c3c(F)cc(OC)cc3F)[C@H](NC(=O)c3ccc(OC(F)F)cc3)C2=O)c1=O [Example 373] | 12.5 nM | 233 nM |
| COCCn1ccnc1N1C[C@@H](c2c(F)cc(OC)cc2F)[C@H](NC(=O)c2ccc(OC(F)(F)F)cc2)C1=O [Example 652] | 7.2 nM | 700 nM |
| COc1ccc([C@@H]2CN(c3c(C)ccn(C4CCC4)c3=O)C(=O)[C@H]2NC(=O)c2ccc(OC(F)(F)F)cc2)c(F)c1 [Example 688] | 12 nM | 1.5 nM |
| COc1cc(F)c([C@H]2[C@H](NC(=O)c3ccc(OC(F)F)cc3)C(=O)N(c3cccn(CCO)c3=O)[C@@H]2C)c(F)c1 [Example 407] | 7.8 nM | 640 nM |
| COCC(C(=O)N1CC2(COC2)C1)n1cccc(N2C[C@@H](c3c(F)cc(OC)cc3F)[C@H](NC(=O)c3ccc(OC(F)(F)F)cc3)C2=O)c1=O (stereo partly shown) [Example 482] | 2.5 nM | 1 nM |
| COc1cc(F)c([C@@H]2CN(c3c(C)ccn(CC4CNC(=O)O4)c3=O)C(=O)[C@H]2NC(=O)c2ccc(OC(F)F)cc2)c(F)c1 (stereo partly shown) [Example 619] | 9.4 nM | 64 nM |
| COc1cc(N2C[C@@H](c3c(F)cc(OC)cc3F)[C@H](NC(=O)c3ccc(Cl)cc3)C2=O)nc(N2C[C@@H]3C[C@H]2CN3C)c1 [Example 40] | 0.6 nM | 2600 nM |
| COc1cc(F)c([C@@H]2CN(c3nccc(NCC(C)(C)O)c3C(F)(F)F)C(=O)[C@H]2NC(=O)c2ccc(OC(F)F)cc2)c(F)c1 [Example 239] | 6.6 nM | 650 nM |
| COc1ccc([C@@H]2CN(c3ccnn(CC(F)F)c3=O)C(=O)[C@H]2NC(=O)c2ccc(OC(F)(F)F)cc2)cc1 [Example 692] | 3.8 nM | 2.8 nM |
| COc1ccc([C@@H]2CN(c3c(C)ccn(CCC(F)(F)F)c3=O)C(=O)[C@H]2NC(=O)c2ccc(Cl)cc2)c(F)c1 [Example 401] | 3.7 nM | 7 nM |
| COc1cc(F)c([C@@H]2CN(c3cccn(CC(O)C(F)(F)F)c3=O)C(=O)[C@H]2NC(=O)c2ccc(OC(F)F)cc2)c(F)c1 (single isomer, unassigned) [Example 5] | 2.9 nM | 14 nM |
| COc1cc(F)c([C@@H]2CN(c3cccc(N4C[C@@H](C)N(C)[C@@H](C)C4)n3)C(=O)[C@@H]2NC(=O)c2ccc(OC(F)F)cc2)c(F)c1 [Example 213] | 5.6 nM | 1800 nM |
| Cc1ccn(CC(F)F)c(=O)c1N1C[C@@H](c2ccc(Cl)cc2)[C@H](NC(=O)c2ccc(OC(F)(F)F)cc2)C1=O [Example 443] | 5.1 nM | 2 nM |
| COc1cc(F)c([C@@H]2CN(c3cccn(C(F)F)c3=O)C(=O)[C@H]2NC(=O)c2ccc(OC(F)F)cc2)c(F)c1 [Example 52] | 1.3 nM | 27 nM |
| COc1cc(F)c([C@@H]2CN(c3c(C)ccn(CC4CC4)c3=O)C(=O)[C@H]2NC(=O)c2ccc(Cl)cc2)c(F)c1 [Example 450] | 3 nM | 3 nM |
| COc1ccc([C@@H]2CN(c3cccn(CC(O)C(F)(F)F)c3=O)C(=O)[C@H]2NC(=O)c2ccc(OC(F)F)cc2)cc1 (stereo partly shown) [Example 644] | 2.1 nM | 64 nM |
| COc1cc(F)c([C@@H]2CN(c3nc(N4CCC(O)C4=O)ccc3F)C(=O)[C@H]2NC(=O)c2ccc(OC(F)(F)F)cc2)c(F)c1 (stereo partly shown) [Example 326] | 11 nM | 35 nM |
